Laboratory results published in patent US20040166099A1, “Molecules preferentially associated with effector T cells and methods of their use” (TolerRx, Inc., priority 2002, published 2004).
“Also recorded” adds a separate entry of the source.

What was measured:
Assay type in all cases: cell-based, human
Th1 cells = test: Proliferation (3H-thymidine incorporation) of differentiated Th1 cells stimulated with CD3 and CD28
Excerpt: (§1) FIG. 4 depicts inhibition of proliferation of Th1 and Th2 cells, but not regulatory T cells, by Rottlerin, a commercially available inhibitor of PKC enzymes. Differentiated cells were stimulated with CD3 and CD28 in the presence of absence of the PKC inhibitor Rottlerin. Incorporation of ^3H-thymidine was used to monitor cell proliferation. Proliferation of each cell type is normalized to the proliferation observed in the absence of inhibitor.
(§2) Differentiated cell lines were produced from cells prepared from human cord blood or peripheral blood CD4+CD45RA+naïve T cells by a variety of methods, including flow cytometry and magnetic bead separations. Purity of the starting populations was >95%. Cells were then stimulated by CD3 and CD28 antibodies in RPMI 1640 with 10% FCS and 1% Human AB serum with defined mixtures of cytokines and neutralizing antibodies to cytokines to produce the differentiated cell types. Th1 cells were produced by culture with IL12 (62 U/ml) and anti-IL4 (0.2 ug/ml); Th2 cells were produced by culture in IL4(145 U/ml) and anti-IL12 (10 ug/ml) and anti-IFNγ (10 ug/ml); and regulatory T cells were produced by culture in TGFβ (32 U/ml), IL9 (42 U/ml), anti-IL4 (10 ug/ml) and anti-IL12 (10 ug/ml) and anti-IFNγ(10 ug/ml). (Note: anti-IL12 was not used in all experiments). All cultures were supplemented with IL2 (65 U/ml) and IL15 (4500 U/ml). Cells were split into larger culture dishes as warranted by cell division. At the conclusion of one round of cell differentiation (7-12 days), cells were harvested for preparation of total RNA for use in the gene chip experiments.
(§3) Differentiated cells, prepared as above, were re-stimulated using CD3 and CD28 in the presence of a range of concentrations of the commercial inhibitor Rottlerin.
(§4) Three days after initiation of the cultures, three replicate tissue culture wells for each condition for each cell type were fed with media containing ^3H-thymidine to monitor cell division. Wells were harvested 18 hr later and incorporated ^3H was measured by scintillation counting.

Th2 cells = test: Proliferation (3H-thymidine incorporation) of differentiated Th2 cells stimulated with CD3 and CD28
Excerpt: as §1, §2, §3, §4

[1] = test system: regulatory T cells (TGFβ-derived Treg cells); test: Proliferation (3H-thymidine incorporation) of differentiated regulatory T cells stimulated with CD3 and CD28
Excerpt: as §1
Differentiated cell lines were produced from cells prepared from human cord blood or peripheral blood CD4+CD45RA+naïve T cells by a variety of methods, including flow cytometry and magnetic bead separations. Purity of the starting populations was >95%. Cells were then stimulated by CD3 and CD28 antibodies in RPMI 1640 with 10% FCS and 1% Human AB serum with defined mixtures of cytokines and neutralizing antibodies to cytokines to produce the differentiated cell types. […]
as §4

[2] = FIG. 5 legend, representative data
[3] = wells coated with CD3 and CD28, 3H-thymidine fed at day 3, harvested 18 hr later, increasing concentrations of inhibitor, FIG. 5

Row | Compound | inhibition of cell division / proliferation of Th1 cells (Th1 cells; Th1 cells re-stimulated using CD3 and CD28, 5 uM, three of three experiments, FIG. 4) | inhibition of cell division / proliferation of Th2 cells (Th2 cells; Th2 cells re-stimulated using CD3 and CD28, 5 uM, three of three experiments, FIG. 4) | inhibition of proliferation of regulatory T cells ([1]; regulatory T cells re-stimulated using CD3 and CD28, range of concentrations, three of three experiments, FIG. 4) | inhibition of proliferation of Th1 cells (in words) (Th1 cells; [2]) | proliferation of Th1 cells relative to control (Th1 cells; [3]) | inhibition of proliferation of Th2 cells (in words) (Th2 cells; [2]) | proliferation of Th2 cells relative to control (Th2 cells; [3]) | inhibition of proliferation of TGFβ-derived Treg cells (in words) [1, 2]
1 | CC(=O)c1c(O)c(C)c(O)c(Cc2c(O)c3c(c(C(=O)/C=C/c4ccccc4)c2O)OC(C)(C)C=C3)c1O [Rottlerin] | inhibition; also recorded: inhibited | inhibition; also recorded: inhibited | not and did not inhibit | – | – | – | – | –
2 | NH2-RQIKIWFQNRRMKWKKMDQNMFRNFSFNMP-COOH (H-RQIKIWFQNRRMKWKKMDQNMFRNFSFNMP-OH) [antennapedia-PKCθ peptide] | – | – | – | selectively inhibits | 16 % of control levels | selectively inhibits | 16 % of control levels | not
